{"source": "patent US20230134376A1", "about": "“METHOD FOR QUANTITATIVE IMAGING OF THE METABOLIC STATUS OF A LESION” (priority 2020, published 2023)", "key": {"NADH/NAD+ ratio": {"test_system": "NADH/NAD+ ratio", "test": "FLIM phasor quantification of NADH/NAD+ ratio (anaerobic glycolysis) in incisional skin wound", "format": "in vivo, mice (C57Bl6/J)", "details": "for NADH/NAD+ ratio in perilesional area vs untreated condition (in words): comparison between first 10 values of each condition, t-test; for line slope of linear regression of NADH/NAD+ ratio vs untreated (in words): deviation between slopes test; for slope of gradient of NADH/NAD+ ratio vs distance from wound: untreated −0.267±0.06", "from_the_text": "FIG. 2: Measurement of anaerobic glycolysis in wound by FLIM quantification of NADH/NAD^+ ratio. Phasor analysis of free and bound NADH fluorescence allows a quantification of their relative increase. A, map of a gradient of NADH/NAD+ ratio (grey). Wound margin is highlighted with a dashed line. All scale bars 100 μm. B, phasor analysis of FLIM NADH fluorescence. NADH region of the phasor plot was divided in five sub-regions along the major axis and each is associated with an intensity value (0-20, 20-40, 40-60, 60-80, 80-100). […] D, NADH/NAD^+ ratio percentage as a function of distance from wound (grey). […] NADH/NAD^+ ratio is lower in perilesional area of DCA-treated mice (grey line vs grey line of D, comparison between first 10 values of each condition, t-test ****, P<0.0001). n=3 mice.\nFIG. 8. Effect of the mitochondrial respiratory chain in the measurement of NADH/NAD^+ ratio as expression of glycolysis in wound. A, NADH/NAD^+ ratio percentage as a function of distance from wound. […] NADH/NAD^+ ratio is lower in perilesional area of Antimycin A-treated mice (bottom graph vs grey line for untreated condition, comparison between first 10 values of each condition, t-test, P<0.0001). […] B, map of a gradient of NADH/NAD+ ratio (grey) in wound in untreated (n=4) or mice treated with Rotenone (n=3) and Antimycin A (n=2). Wound margin is highlighted with a dashed line. All scale bars 20 μm.\nOn day 1 after wounding, FLIM images were acquired with 2PM and stitched to produce lifetime XYZ mosaics (600-1000 μm wide and 200 μm deep) (FIG. 2a). Common FLIM imaging has slow acquisition times, which are required to collect enough photons to reconstruct a time decay curve. This was compensated by the use of a time correlated single-photon counting (TCSPC) 16-channel parallel detector, with an average counting speed of 80 MHz which allowed faster 3D scanning of the mosaic over lesion area^31. The ratio of free to protein-bound NADH has been known to be associated with the ratio of NAD^+ to NADH in small intestine epithelial cells^32 and breast cancer cells^33. Protein-bound NADH has a complex multi-exponential lifetime decay that has been related to its binding to different enzymes, such as malate dehydrogenase and lactate dehydrogenase^34. Standard approaches revolved on a characterization by fitting with a two-exponential curve, corresponding to a short or long lifetime range. This approximation is however misleading because free and protein-bound NADH have common exponential components and the NADH binding sites with different enzymes cannot be considered^32, 35. In fact, in our case this approach was ineffective to discriminate between untreated and DCA-treated mice (FIG. 7). […] Instead, phasor analysis^32, 36 was used. In accordance with a previous report^37, we designed an analysis that first divides the phasor cloud into five regions (FIG. 2b) corresponding to a gradient of prevailing anaerobic glycolysis in regions of lower lifetimes towards a region where more oxidative phosphorylation occurs. Pixels attributed to each region were then associated to discrete values of decreasing intensity, and therefore quantification of pixel intensity on the resulting image was proportional to the relative increase in anaerobic glycolysis. By linearizing images, we obtained a spatial distribution of anaerobic glycolysis from wound profile (FIG. 2c). At lesion margin, gradient of NADH/NAD^+ ratio corresponded to 29.1±0.4% and decreased until to 2.6±0.1% distance (range of 200-500 μm) from the wound. The decrease was evaluated with a linear regression fitting as the simplest fitting model for testing the overall deviation from zero slope curve (linear regression fitting with a slope of −0.050±0.0016 μm^−1; black line with 95% CL bands; deviation from zero slope test, P<0.0001) (FIG. 2d). An increased anaerobic glycolysis around wound margins was also evident in XZ maximum intensity projection images of the maps (FIG. 2e). […]"}, "excisional skin wound": {"test_system": "excisional skin wound", "test": "Full-thickness excisional skin wound healing model, kinetic analysis of wound area", "format": "in vivo, mice (C57BL/6J)", "details": "for DCA-mediated delayed wound closure (measurement of wound area) compared to control mice: single administration 300 mg/Kg i.p. 1 h prior skin wounding", "protocol": "FIG. 1: In vivo relevance of the cell metabolic adaptation in skin repair. The excisional skin wound healing model was used. Left, kinetic analysis of skin wound areas was performed. Values represent mean±SD. Right, representative macroscopic images of untreated and DCA treated mice are shown at the indicated days after wounding. Bar, 5 mm. *P<0.05, **P<0.01; Student's t-test. Untreated, n=8; DCA, n=9. One experiment shown out of two performed with similar number of animals.\nIn order to determine the relevance of wound acidification in healing outcome in vivo, the pyruvate dehydrogenase kinase (Pdk) inhibitor dichloroacetate (DCA) was used in a model of full-thickness excisional skin wounding to promote glucose oxidation over anaerobic glycolysis, thus interfering with local acidosis.\nExcisional model of skin injury. A full-thickness excisional skin injury model was performed as previously described^7. Mice were anesthetized with 10 μL/g of weight of Ketamine (final concentration 10 mg/mL) and Xylazine (final concentration 1 mg/mL) in saline buffer. As described^7, a full-thickness wound (from skin to underlying panniculus carnosus) was generated with disposable biopsy punch (8-mm diameter). Gentamicin was immediately applied to limit gross bacterial infections, not evident from histological examination carried out at different time points of the experiment. Mice were optionally treated with a solution of sodium dichloroacetate (DCA; Sigma-Aldrich Corp.), which was injected i.p. in 10-12 weeks-old C57BL/6J with a dosage of 300 mg/Kg 1 h before skin wounding. PBS or saline were used in control mice. As previously described^7, the skin wounds of each mouse were digitally photographed and measured during wound healing by tracing them on a transparency, calculated with the ImageJ-Fiji software, and the variations in time expressed as a percentage of the initial wound area."}}, "data": [{"molecule": "O=C([O-])C(Cl)Cl.[Na+]", "note": "[DCA, sodium dichloroacetate]", "values": [{"measurement": "anaerobic glycolysis (NADH/NAD+ ratio) at perilesional area", "setting": "NADH/NAD+ ratio; DCA 300 mg/Kg i.p., 1 h, mean of the first 10 values, untreated 29.1±0.4%, P<0.0001", "result": "8.0±0.2", "unit": "%"}, {"measurement": "gradient steepness, slope of linear regression of NADH/NAD+ ratio vs distance from wound", "setting": "NADH/NAD+ ratio; DCA 300 mg/Kg i.p., 1 h, untreated −0.050±0.0016, P<0.0001", "result": "−0.035±0.0023", "unit": "μm^−1"}, {"measurement": "NADH lifetime decays in perilesional regions fitted with a two-exponential decay function, treated vs untreated", "setting": "NADH/NAD+ ratio; Student t-test, P>0.05", "result": "could not show significant differences"}, {"measurement": "NADH/NAD+ ratio in perilesional area vs untreated condition (in words)", "setting": "NADH/NAD+ ratio", "result": "lower"}, {"measurement": "line slope of linear regression of NADH/NAD+ ratio vs untreated (in words)", "setting": "NADH/NAD+ ratio; P<0.0001", "result": "reduction in line slope"}, {"measurement": "DCA-mediated delayed wound closure (measurement of wound area) compared to control mice", "setting": "excisional skin wound; day 1, P=0.005", "result": "−28.3", "unit": "%"}, {"measurement": "DCA-mediated delayed wound closure (measurement of wound area) compared to control mice", "setting": "excisional skin wound; day 2, P=0.004", "result": "−27.1", "unit": "%"}, {"measurement": "DCA-mediated delayed wound closure (measurement of wound area) compared to control mice", "setting": "excisional skin wound; day 3, P=0.05", "result": "−22.5", "unit": "%"}, {"measurement": "DCA-mediated delayed wound closure (measurement of wound area) compared to control mice", "setting": "excisional skin wound; day 4, P=0.02", "result": "−24.5", "unit": "%"}, {"measurement": "DCA-mediated delayed wound closure (measurement of wound area) compared to control mice", "setting": "excisional skin wound; day 5, P=0.002", "result": "−30.5", "unit": "%"}, {"measurement": "DCA-mediated delayed wound closure (measurement of wound area) compared to control mice", "setting": "excisional skin wound; day 6, P=0.01", "result": "−20.4", "unit": "%"}, {"measurement": "DCA-mediated delayed wound closure (measurement of wound area) compared to control mice", "setting": "excisional skin wound; day 7, P=0.03", "result": "−17.4", "unit": "%"}, {"measurement": "wound closure curve compared to mice treated with vehicle alone", "setting": "excisional skin wound; single administration 300 mg/Kg 1 h prior skin wounding, n=9 vs n=8", "result": "significantly delayed curve"}]}, {"molecule": "C=C(C)[C@H]1Cc2c(ccc3c2O[C@@H]2COc4cc(OC)c(OC)cc4[C@@H]2C3=O)O1", "note": "[Rotenone]", "values": [{"measurement": "glycolysis in regions distant from the wound", "setting": "NADH/NAD+ ratio; Rotenone 20 μM local", "result": "increased glycolysis in regions distant from the wound"}, {"measurement": "slope of gradient of NADH/NAD+ ratio vs distance from wound", "setting": "NADH/NAD+ ratio; Rotenone 20 μM local (i.d.) 1 h before imaging, P<0.0001", "result": "−0.113±0.002", "unit": "μm^−1"}, {"measurement": "fraction of anaerobic glycolysis at wound margin", "setting": "NADH/NAD+ ratio; Rotenone 20 μM local (i.d.), untreated 20.28±0.41%, P>0.05", "result": "20.08±0.21", "unit": "%"}, {"measurement": "NADH/NAD+ ratio in perilesional area vs untreated condition (in words)", "setting": "NADH/NAD+ ratio", "result": "no significant decrease in value"}, {"measurement": "line slope of linear regression of NADH/NAD+ ratio vs untreated (in words)", "setting": "NADH/NAD+ ratio; P<0.0001", "result": "significant reduction in line slope"}]}, {"molecule": "Antimycin A", "values": [{"measurement": "slope of gradient of NADH/NAD+ ratio vs distance from wound", "setting": "NADH/NAD+ ratio; Antimycin A 5 μM i.d. 1 h before imaging, P<0.0001", "result": "−0.046±0.08", "unit": "μm^−1"}, {"measurement": "glycolysis at wound margin (NADH/NAD+ ratio)", "setting": "NADH/NAD+ ratio; Antimycin A 5 μM i.d., untreated 20.28±0.41%, P<0.0001", "result": "8.37±0.49", "unit": "%"}, {"measurement": "NADH/NAD+ ratio in perilesional area vs untreated condition (in words)", "setting": "NADH/NAD+ ratio", "result": "lower"}, {"measurement": "line slope of linear regression of NADH/NAD+ ratio vs untreated (in words)", "setting": "NADH/NAD+ ratio; P<0.0001", "result": "reduction in line slope"}]}]}
